Experimental data: patent US12653191B2, “Active compound combinations” (Bayer Aktiengesellschaft, priority 2020, dated 2026)
Where two headings read alike, the source gives them in different places.

Legend:
Cercospora beticola [1] = assay: in vitro-Test with fungal microorganisms, Method A (tables C1-C10); format: cell-based; settings: Cercospora beticola, read-out: Efficacy %
Outline: (§1)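 Readout: extinction at 620 nm, measured at start and again 3-5 days later, giving efficacy versus untreated control (0% = control growth, 100% = no growth). Compounds were evaporated from methanol/emulsifier before adding potato dextrose medium with fungal spores or mycelium; incubation 20° C, 85% RH.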

Fusarium culmorum = assay: in vitro-Test with fungal microorganisms, Method A (tables G1-G4); format: cell-based
Description: (§2) Example: In Vitro-Test with Fungal Microorganisms
(§3) Wells of 96-well microtiter plates are filled with 10 μl of a preparation of test compound or compound combination in methanol+emulsifier alkylaryl-polyglycol-ether. Thereafter, the solvent is evaporated in a hood. At the next step, 100 μl of liquid potato dextrose medium is given into each well, that has been amended with an appropriate concentration of spores or mycelium suspension of the test fungus.
(§4) With the aid of a photometer, the extinction in all wells is measured at the wavelength of 620 nm.
(§5) The microtiter plates are incubated at 20° C. and 85% relative humidity. The inhibition of growth is determined again photometrically 3-5 days after the application. Efficacy is calculated in relation to the untreated control, 0% efficacy means fungal growth as high as in untreated control while 100% efficacy means no fungal growth is measured.
(§6) The data in tables A1 to A12, B1 to B14, C1 to C10, D1 to D8, E1 to E8, F1 to F11, G1 to G4, H1 to H4 and I1 to I5 were collected according to Method A. The data in tables A13 to A22, B15 to B18, C11 to C20, E9 to E16, F12 to F15, G5 to G15, H5 to H8, I6 to I11 and J1 to J11 were collected according to Method B.

[2] = tested on: Ustilago segetum var. avenae; assay: in vitro-Test with fungal microorganisms, Method A (tables I1-I5); format: cell-based; settings: alone, read-out: Efficacy %
Description: as §2, §3, §4, §5, §6

Botrytis cinerea [3] = assay: in vitro-Test with fungal microorganisms, Method A (tables B1-B14); format: cell-based; settings: Botrytis cinerea
Outline: as §1

Diaporthe citri = assay: in vitro-Test with fungal microorganisms, Method A (tables F1-F11); format: cell-based; settings: Diaporthe citri, read-out: Efficacy
Outline: as §1

Alternaria alternate = assay: in vitro-Test with fungal microorganisms, Method A (tables A1-A12); format: cell-based, Alternaria alternata; settings: Alternaria, applied alone, read-out: Efficacy %
Outline: as §1

Colletotrichum coccodes = assay: in vitro-Test with fungal microorganisms, Method B (tables J1-J11); format: cell-based; settings: Colletotrichum coccodes, read-out: Efficacy %
Outline: (§7)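 Cpd in MeOH + alkylaryl-polyglycol-ether, solvent evaporated; liquid medium + fungal spores/mycelium added; OD600 read; 3–7 d, 20° C., 85% RH; growth inhibition by photometry, % efficacy vs untreated ctrl.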

Cordana musae [4] = assay: in vitro-Test with fungal microorganisms, Method A (tables E1-E8); format: cell-based; settings: Neocordana musae, single substance, read-out: Efficacy %
Description: as §2, §3, §4, §5, §6

Botrytis cinerea [5] = assay: in vitro-Test with fungal microorganisms, Method B (tables B15-B18); format: cell-based; settings: Botrytis cinerea, alone, read-out: Efficacy %
Description: as §2
Wells of 96-well microtiter plates are filled with 30 μl of a preparation of test compound or compound combination in methanol+emulsifier alkylaryl-polyglycol-ether. Thereafter, the solvent is evaporated in a hood. At the next step, 200 μl of liquid growth medium is given, that has been amended with an appropriate concentration of spores or mycelium suspension of the test fungus.
With the aid of a photometer, the extinction in all wells is measured at the wavelength of 600 nm.
The microtiter plates are incubated for 3 to 7 days at 20° C. and 85% relative humidity. After the incubation inhibition of growth is determined photometrically. Efficacy is calculated in relation to the untreated control, 0% efficacy means fungal growth as high as in untreated control while 100% efficacy means no fungal growth is measured.
as §6

Cordana musae [6] = assay: in vitro-Test with fungal microorganisms, Method B (tables E9-E16); format: cell-based; settings: Neocordana musae, single active, read-out: Efficacy
Outline: as §7

Cercospora beticola [7] = assay: in vitro-Test with fungal microorganisms, Method B (tables C11-C20); format: cell-based; settings: Cercospora beticola, read-out: Efficacy %
Outline: as §7

[8] = tested on: Ustilago segetum var. avenae; assay: in vitro-Test with fungal microorganisms, Method B (tables I6-I11); format: cell-based; settings: 1 ppm; read-out: Efficacy %
Outline: as §7

[9] = tested on: Colletotrichum lindemuthianum; assay: in vitro-Test with fungal microorganisms, Method A (tables D1-D8); format: cell-based; settings: Colletotrichum lindemuthianum, read-out: Efficacy %
Description: as §2, §3, §4, §5, §6

Alternaria alternata = assay: in vitro-Test with fungal microorganisms, Method B (tables A13-A22); format: cell-based; settings: Alternaria alternata, read-out: Efficacy
Outline: as §7

In the case of `Cc1cc(C2=NOCC(Cc3ccc(Br)cc3C)N2)c(Oc2cccc(Cl)c2F)nn1` (racemic) [Compound I-300, rac-5-[(4-bromo-2-methylphenyl)methyl]-3-[3-(3-chloro-2-fluorophenoxy)-6-methylpyridazin-4-yl]-5,6-dihydro-4H-1,2,4-oxadiazine], the inhibition of growth at 0.0008 ppm (Cercospora beticola [1]; 0.0008 ppm alone) was 0%, the inhibition of growth at 0.0008 ppm (Cercospora beticola [1]; 0.0008 ppm) was 0% and the inhibition of growth at 0.004 ppm (Cercospora beticola [1]; 0.004 ppm alone) was 0%. The inhibition of growth at 0.004 ppm (Cercospora beticola [1]; 0.004 ppm) was 0%, the inhibition of growth at 0.02 ppm (Cercospora beticola [1]; 0.02 ppm alone) was 10% and the inhibition of growth at 0.02 ppm (Cercospora beticola [1]; 0.02 ppm) was 10%. The inhibition of growth at 0.1 ppm (Cercospora beticola [1]; 0.1 ppm alone) was 19%, the inhibition of growth at 0.1 ppm (Cercospora beticola [1]; 0.1 ppm) was 19% and the inhibition of growth at 0.0008 ppm (Fusarium culmorum; Fusarium culmorum, 0.0008 ppm, alone, read-out: Efficacy) was 2%. It also gave an inhibition of growth at 0.004 ppm (Fusarium culmorum; Fusarium culmorum, 0.004 ppm, alone, read-out: Efficacy) of 6%, an inhibition of growth at 0.02 ppm (Fusarium culmorum; Fusarium culmorum, 0.02 ppm, alone, read-out: Efficacy) of 5% and an inhibition of growth at 0.1 ppm (Fusarium culmorum; Fusarium culmorum, 0.1 ppm, alone, read-out: Efficacy) of 2%. It also gave an inhibition of growth at 0.0008 ppm ([2]; 0.0008 ppm) of 0%, an inhibition of growth at 0.004 ppm ([2]; 0.004 ppm) of 0% and an inhibition of growth at 0.02 ppm ([2]; 0.02 ppm) of 0%. It also gave an inhibition of growth at 0.1 ppm ([2]; 0.1 ppm) of 0%, an inhibition of growth at 0.0008 ppm (Botrytis cinerea [3]; 0.0008 ppm, read-out: Efficacy) of 0% and an inhibition of growth at 0.004 ppm (Botrytis cinerea [3]; 0.004 ppm, read-out: Efficacy) of 0%. It also gave an inhibition of growth at 0.02 ppm (Botrytis cinerea [3]; 0.02 ppm, read-out: Efficacy) of 0%, an inhibition of growth at 0.1 ppm (Botrytis cinerea [3]; 0.1 ppm, read-out: Efficacy) of 49% and an inhibition of growth at 0.0008 ppm (Diaporthe citri; applied alone, 0.0008 ppm) of 0%. It also gave an inhibition of growth at 0.004 ppm (Diaporthe citri; applied alone, 0.004 ppm) of 10%, an inhibition of growth at 0.02 ppm (Diaporthe citri; applied alone, 0.02 ppm) of 22% and an inhibition of growth at 0.1 ppm (Diaporthe citri; applied alone, 0.1 ppm) of 44%. It also gave an inhibition of growth at 0.1 ppm (Alternaria alternate; 0.1 ppm) of 100%.

With `O=C1c2ccccc2C(=O)N1SC(Cl)(Cl)Cl` [(5.012) folpet, folpet] the inhibition of growth at 0.4 ppm (Cercospora beticola [1]; 0.4 ppm) was 50%, the inhibition of growth at 0.008 ppm (Colletotrichum coccodes; 0.008 ppm) was 1% and the inhibition of growth at 0.04 ppm (Colletotrichum coccodes; 0.04 ppm) was 3%. It also gave an inhibition of growth at 1 ppm (Colletotrichum coccodes; 1 ppm) of 66%, an Efficacy (Fusarium culmorum; 0.4 ppm alone) of 0% and an Efficacy (Fusarium culmorum; 10.0 ppm, alone) of 100%. For the same compound, the inhibition of growth at 0.08 ppm (Fusarium culmorum; Fusarium culmorum, 0.08 ppm, alone, read-out: Efficacy) was 0%, the inhibition of growth at 2 ppm (Fusarium culmorum; Fusarium culmorum, 2.0 ppm, alone, read-out: Efficacy) was 100% and the inhibition of growth at 0.4 ppm ([2]; 0.4 ppm) was 15%. For the same compound, the inhibition of growth at 2 ppm ([2]; 2.0 ppm) was 100%, the inhibition of growth at 10 ppm ([2]; 10.0 ppm) was 100% and the inhibition of growth at 2 ppm (Botrytis cinerea [3]; alone, 2.0 ppm, read-out: Efficacy %) was 100%. It also gave an inhibition of growth at 10 ppm (Botrytis cinerea [3]; alone, 10.0 ppm, read-out: Efficacy %) of 100%, an inhibition of growth at 0.08 ppm (Diaporthe citri; Table F10, 0.08 ppm alone) of 12% and an inhibition of growth at 2 ppm (Diaporthe citri; Table F10, 2.0 ppm alone) of 99%. It also gave an inhibition of growth at 10 ppm (Diaporthe citri; Table F10, 10.0 ppm alone) of 100%, an inhibition of growth at 0.08 ppm (Diaporthe citri; applied alone, 0.08 ppm) of 1% and an inhibition of growth at 0.4 ppm (Diaporthe citri; applied alone, 0.4 ppm) of 56%. The inhibition of growth at 2 ppm (Diaporthe citri; applied alone, 2.0 ppm) was 99%, the inhibition of growth at 0.08 ppm (Cordana musae [4]; 0.08 ppm) was 5% and the inhibition of growth at 0.4 ppm (Cordana musae [4]; 0.4 ppm) was 10%. It also gave an inhibition of growth at 2 ppm (Cordana musae [4]; 2.0 ppm) of 100%, an inhibition of growth at 0.008 ppm (Botrytis cinerea [5]; 0.008 ppm) of 8% and an inhibition of growth at 0.04 ppm (Botrytis cinerea [5]; 0.04 ppm) of 1%. It also gave an inhibition of growth at 1 ppm (Botrytis cinerea [5]; 1 ppm) of 16%, an inhibition of growth at 0.008 ppm (Cordana musae [6]; 0.008 ppm) of 0% and an inhibition of growth at 0.04 ppm (Cordana musae [6]; 0.04 ppm) of 0%. The inhibition of growth at 0.2 ppm (Cordana musae [6]; 0.2 ppm) was 17%, the inhibition of growth at 1 ppm (Cordana musae [6]; 1 ppm) was 62% and the inhibition of growth at 0.008 ppm (Cercospora beticola [7]; 0.008 ppm) was 7%. It also gave an inhibition of growth at 1 ppm (Cercospora beticola [7]) of 100%, an inhibition of growth at 0.04 ppm (Cercospora beticola [7]; single compound, 0.04 ppm) of 0% and an inhibition of growth at 0.2 ppm (Cercospora beticola [7]; single compound, 0.2 ppm) of 16%. The inhibition of growth at 1 ppm (Cercospora beticola [7]; single compound) was 86%, the inhibition of growth at 2 ppm (Alternaria alternate; 2.0 ppm) was 100% and the inhibition of growth at 10 ppm (Alternaria alternate; 10.0 ppm) was 100%. The inhibition of growth at 1 ppm [8] was 6%, the inhibition of growth at 0.08 ppm ([9]; mixing partner alone, 0.08 ppm) was 0% and the inhibition of growth at 0.4 ppm ([9]; mixing partner alone, 0.4 ppm) was 0%. For the same compound, the inhibition of growth at 2 ppm ([9]; mixing partner alone, 2.0 ppm) was 100%, the inhibition of growth at 10 ppm ([9]; mixing partner alone, 10.0 ppm) was 100% and the inhibition of growth at 0.08 ppm ([9]; single active at 0.08 ppm) was 0%. It also gave an inhibition of growth at 0.4 ppm ([9]; single active at 0.4 ppm) of 13%, an inhibition of growth at 2 ppm ([9]; single active at 2.0 ppm) of 98% and an inhibition of growth at 10 ppm ([9]; single active at 10.0 ppm) of 100%. For the same compound, the inhibition of growth at 0.2 ppm (Alternaria alternata) was 6%, the inhibition of growth at 1 ppm (Alternaria alternata) was 99% and the inhibition of growth at 0.008 ppm (Alternaria alternata; single compound, 0.008 ppm) was 6%. For the same compound, the inhibition of growth at 0.04 ppm (Alternaria alternata; single compound, 0.04 ppm) was 3%, the inhibition of growth at 0.2 ppm (Alternaria alternata; single compound) was 7% and the inhibition of growth at 1 ppm (Alternaria alternata; single compound) was 83%.
